# Assay results taken from paper PMC7852560 (Neuropsychopharmacology, 2020).
# Key:
# Male Sprague Dawley rats = assay: Conditioned avoidance response (CAR); assay type: in vivo; settings: rat, in vivo
# Protocol: Male Sprague Dawley rats (PD>63) were trained on a CAR protocol and responding following drug exposure was determined. […] Animals were trained to learn a house light (CS) as predictive of an avoidable 0.6mA scrambled foot shock (US). Each session consisted of 50 trials and animals avoided >70% of trials on the final acquisition session were tested for CAR during vehicle baseline, drug exposure, and re-emergence. In addition to CAR testing, both temperature and catalepsy were recorded in these animals (measure of potential CB1R agonism). Temperature: recorded on first day of drug exposure, prior to injection and 60-90-min. following drug exposure.
# GluN1KD mice = assay: Open-field test in GluN1KD mice; settings: ABM300 10 mg/kg, OLA 1 mg/kg i.p., 30 min before test
# in vitro = in vitro ADME, rat; settings: pH 7.4
# Protocol: Microsomal stability assays were conducted by Cyprotex Ltd (Macclesfield, UK).
# The study of drug stability in the presence of liver microsomes is accepted as a valuable model for permitting rapid prediction of in vivo drug stability (see Kerns & Di, 2008). Microsomal stability studies were performed by Cyprotex Ltd (Macclesfield, UK). […] Microsomes (final protein concentration 0.5 mg/mL), 0.1 M phosphate buffer pH 7.4, and test compound (final concentration 3 μM; diluted from 10 mM stock solution to give a final DMSO concentration of 0.25%) were incubated at 37°C prior to the addition of NADPH (final concentration 1 mM) to initiate the reaction with a final incubation volume of 25 µL. A control incubation was included for each compound tested, where 0.1 M phosphate buffer pH 7.4 was added instead of NADPH. The control compounds testosterone and 7-hydroxycoumarin were included in each experiment and all incubations were performed singularly for each compound. […] Following protein precipitation, the sample supernatants were combined in cassettes of up to 4 compounds and analyzed using standard LC-MS/MS conditions. From a plot of the natural logarithm of the peak area ratio (i.e., the ratio of compound peak area: internal standard peak area) against time, the gradient of the line was determined. Subsequently, half-life and intrinsic clearance were calculated using the equations below: […]
# Male C57Bl/6J mice = assay: Cannabinoid-induced tetrad; assay type: in vivo; settings: 10 mg/kg i.p., 30 min prior
# Protocol: Male C57Bl/6J mice (PD > 70) were tested on the cannabinoid-induced tetrad, as previously described.
# (i.p.) before testing. The tetrad was performed (1) catalepsy, (2) locomotion, (3) temperature, and (4) analgesia. Catalepsy: time (s) spent immobile with front paws on a plastic rod (1.5cm diameter), at a height of 4.5-cm from the table, before adjusting abnormal posture (either front paws being removed from the bar, or back paws climbing onto bar). Locomotion: horizontal activity (cm) was immediately measured in an open field test, following catalepsy, for 15-min. in 1-min bins. Temperature: rectal temperature (°C) was measured immediately following open-field testing, using a thermometer with rectal probe (Labcorp, Fisher, Waltham, MA). Analgesia: latency (s) to withdraw tail from hot water bath (52 °C), to assess tail-flick antinociception, was completed immediately following temperature readings.
# DATKO mice = assay: Pre-pulse inhibition in DATKO mice; assay type: in vivo; settings: 10 mg/kg i.p.
# Protocol: Pre-Pulse Inhibition (PPI): PPI of the acoustic startle response was measured on day 3, via SR-LAB equipment and software from San Diego Instruments. Accelerometers were calibrated to 700±5 mV and output voltages were amplified and analyzed for voltage changes using SR Analysis (San Diego Instruments, San Diego, CA, USA), and exported as an excel file. Background white noise was maintained at 65dB. PPI was measured in a 30-min test with 80 randomized trials of: (1) 10 trials pulse alone (2) 10 trials pre-pulse alone (for each pre-pulse), (3) 10 trials pre-pulse plus pulse (for each pre-pulse), and (4) 10 trials no pulse. 5 pulse alone trials were performed before and after the 80 trials, totaling 90 trials per run. The pre-pulse (4dB, 8dB, or 16dB) was presented 100ms prior to the startle pulse […]. The inter-stimulus interval (ISI) was randomized between 5 and 20s. Experimental mice were placed in a cylindrical tube on a platform in a soundproof chamber. Mice were allowed to acclimatize in the chamber and to the background noise for 300s, followed by 5 consecutive pulse alone trials, then by 80 randomized trials (as described above) and then 5 consecutive pulse alone trials. Pre-pulse inhibition was measured as a decrease in the amplitude of startle response to a 100dB acoustic startle pulse, following each pre-pulse (4dB, 8dB and 16dB).
# 5HT1B = biological target: T1, 5HT1B (Rattus norvegicus, UniProt P28564); assay: SafetyScreen44 panel: 5HT1B; assay type: binding; settings: 1 µM
# T1 construct: Eurofins Cerep
# T1 sequence (P28564 whole entry): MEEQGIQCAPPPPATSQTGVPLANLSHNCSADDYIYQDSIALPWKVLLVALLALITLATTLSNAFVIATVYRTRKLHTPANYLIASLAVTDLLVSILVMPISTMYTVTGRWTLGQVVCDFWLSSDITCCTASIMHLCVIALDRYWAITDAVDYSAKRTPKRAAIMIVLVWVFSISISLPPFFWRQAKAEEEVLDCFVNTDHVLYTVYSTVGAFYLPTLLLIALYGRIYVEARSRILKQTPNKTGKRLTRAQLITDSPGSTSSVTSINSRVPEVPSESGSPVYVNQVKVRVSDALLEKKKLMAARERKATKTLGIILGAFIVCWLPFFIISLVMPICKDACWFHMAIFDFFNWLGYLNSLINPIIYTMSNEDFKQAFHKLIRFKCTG
# Protocol: (§1) The screen assesses the selectivity of the compound on a diverse panel of targets that includes GPCRs, drug transporters, ion channels, nuclear receptors, kinases, and other non-kinase enzymes. The screen employs radioligand binding or enzyme assays for these 44 targets.
# (§2) For receptor assays, binding was calculated as percent inhibition of the binding of a radioactively labeled ligand specific for each target. For enzyme assays, the inhibition effect was calculated as percent inhibition of control enzyme activity. Tests were performed in duplicate, and results are averages of those two tests. See https://www.eurofinsdiscoveryservices.com.
# Dopamine D1 = Dopamine D1 (Homo sapiens, UniProt P21728); assay: SafetyScreen44 panel: Dopamine D1; assay type: binding; settings: 1 µM
# Chain of Dopamine D1 (P21728 whole entry): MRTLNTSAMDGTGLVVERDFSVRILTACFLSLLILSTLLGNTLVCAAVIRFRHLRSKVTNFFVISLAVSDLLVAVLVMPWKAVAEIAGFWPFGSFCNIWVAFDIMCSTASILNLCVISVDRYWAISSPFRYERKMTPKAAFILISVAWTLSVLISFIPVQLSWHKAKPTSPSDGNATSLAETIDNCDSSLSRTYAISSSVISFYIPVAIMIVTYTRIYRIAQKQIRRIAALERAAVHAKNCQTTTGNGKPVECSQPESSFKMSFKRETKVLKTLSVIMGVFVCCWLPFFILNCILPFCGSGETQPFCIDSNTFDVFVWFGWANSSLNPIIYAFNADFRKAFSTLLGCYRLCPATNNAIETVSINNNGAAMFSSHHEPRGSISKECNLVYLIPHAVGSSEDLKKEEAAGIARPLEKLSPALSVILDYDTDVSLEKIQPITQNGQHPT
# Protocol: as §1, §2
# CB1R = CB1R (Homo sapiens, UniProt P21554); assay: Equilibrium binding assay with [3H]CP55,940 in hCB1R CHO cells
# Chain of CB1R (P21554 whole entry): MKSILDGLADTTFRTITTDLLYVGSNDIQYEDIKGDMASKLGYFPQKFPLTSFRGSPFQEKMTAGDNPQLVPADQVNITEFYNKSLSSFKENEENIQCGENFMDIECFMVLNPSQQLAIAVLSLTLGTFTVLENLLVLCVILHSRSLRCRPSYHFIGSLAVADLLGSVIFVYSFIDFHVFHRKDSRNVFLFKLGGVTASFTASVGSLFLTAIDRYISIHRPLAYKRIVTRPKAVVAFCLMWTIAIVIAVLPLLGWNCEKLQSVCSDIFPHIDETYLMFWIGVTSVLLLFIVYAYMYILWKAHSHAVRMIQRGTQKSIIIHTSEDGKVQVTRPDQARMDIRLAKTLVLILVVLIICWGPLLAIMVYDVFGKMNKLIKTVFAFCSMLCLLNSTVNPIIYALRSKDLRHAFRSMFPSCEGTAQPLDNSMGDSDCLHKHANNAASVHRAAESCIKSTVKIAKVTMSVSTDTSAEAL
# Protocol: Non-specific binding was defined in the presence of 10 µM WIN55,212-2.
# Radioactivity was quantitated by liquid scintillation spectrometry. Specific binding was defined as the difference between the binding that occurred in the presence and absence of 10 µM of WIN55212. Data were analyzed by nonlinear regression analysis of allosteric modulator titration model using GraphPad Prism 8.0 (GraphPad, San Diego, CA).
structure (smiles),measurement,setting,value
"CCc1c(-c2nnc(Nc3ccccc3)o2)[nH]c2ccc(Cl)cc12 [ABM300, 5-(5-chloro-3-ethyl-1H-indol-2-yl)-N-phenyl-1,3,4-oxadiazol-2-amine]",avoidance behavior in CAR,Male Sprague Dawley rats,no effect
same,exaggerated stereotypic activity,GluN1KD mice,significantly reduced
same,novelty-induced hyperactivity (distance traveled),GluN1KD mice,decreases
same,rearing behavior (vertical exploration),GluN1KD mice,significantly reduced
same,half-life at 3 µM,"in vitro; microsomes, rat liver microsomal preparations",1.83 h
same,microsomal CLint at 3 µM,in vitro; rat liver microsomes,12.6 ± 2 µL/min/mg
same,tetrad: catalepsy-induced immobility time,Male C57Bl/6J mice,no effect
same,tetrad: percent inhibition of locomotor activity (15 min),Male C57Bl/6J mice,no effect
same,tetrad: rectal temperature,Male C57Bl/6J mice,no effect
same,tetrad: tail withdrawal (% MPE),Male C57Bl/6J mice,no effect
same,sensorimotor gating deficits (PPI),DATKO mice,rescue of the PPI deficit at the 16 dB pre-pulse interval
same,acoustic startle response,DATKO mice; data not shown,"Neither genotype, nor treatment with ABM300, had an effect"
same,binding to 5HT1B,5HT1B,did not display any significant binding
same,binding to Dopamine D1,Dopamine D1,did not display any significant binding
same,Kb,CB1R,178 nM
same,EC50,"CB1R; EC50, increase in specific binding of [3H]CP55,940, hCB1R CHO, [3H]CP55,940 0.5 nM",132 nM
same,"Emax, increase in specific binding of [3H]CP55,940","CB1R; hCB1R CHO, [3H]CP55,940 0.5 nM",328 ± 47%
same,EC50,"CB1R; pEC50, increase in specific binding of [3H]CP55,940, hCB1R CHO, [3H]CP55,940 0.5 nM",126 nM
